Test results from publication PMC8364340 (Drug Design, Development and Therapy, 2021).

Tested on: STZ-induced diabetic rats
Assay: Blood glucose-lowering efficacy in STZ-induced diabetic rats
Type: in vivo
Details: subcutaneous, 100 nmol/kg, mean ± SD, n=6

Humulin R: Recombinant Human Insulin Injection (Humulin R, 3mL:300IU), Lilly France
AUC for Glucose AUC0-24h (glucometer, trapezoidal rule): 10,990 ± 415.5 mg·h/dL
AUC for Glucose AUC0-1h: 421 ± 20.4 mg·h/dL
AUC for Glucose AUC0-2h: 724 ± 52.2 mg·h/dL
AUC for Glucose AUC0-4h: 1328 ± 100.1 mg·h/dL
AUC for Glucose AUC0-6h: 2156 ± 132.0 mg·h/dL
AUC for Glucose AUC0-8h: 3092 ± 174.8 mg·h/dL
AUC for Glucose AUC0-12h: 5070 ± 259.4 mg·h/dL
AUC for Glucose AUC0-16h: 7146 ± 321.1 mg·h/dL
